Consider one sequence from PMC10487658, “Identification and Characterization of RK22, a Novel Antimicrobial Peptide from Hirudinaria manillensis against Methicillin Resistant Staphylococcus aureus” (International Journal of Molecular Sciences, 2023).

No end group written: not given here.

For data set [1], the system named is MRSA-Z (clinically isolated methicillin-resistant S. aureus). In words: microbe, parasite or virus in culture. In kind it is cell-based, Staphylococcus aureus. The settings on record: -Z (clinically isolated methicillin-resistant). How it is done: (§1) The bacterial strains used in this study included Pseudomonas aeruginosa (P. aeruginosa, ATCC27853), Acinetobacter baumannii (A. baumannii, ATCC19606), Escherichia coli (E. coli, ATCC8739), and S. aureus (ATCC6538, two clinically isolated strains (SA220823 and SA15772)), and three clinically isolated methicillin-resistant strains (MRSA-Z, MRSA11, and MRSA22). All strains were grown in Luria-Bertani (LB) broth.
(§2) The minimum inhibitory concentration (MIC) for all strains was determined using the […] assay based on a previous study with minor modifications. Initially, strains in the exponential phase were diluted to a concentration of 2 × 10^5 CFU/mL using RPMI 1640 medium (Corning, New York, NY, USA). Next, 100 μL of the bacterial suspension was mixed with 100 μL of the sample solution (final concentration 0–200 μg/mL in RPMI 1640 medium) in 96-well plates. The plates were then incubated at 37 °C for 12–16 h. After incubation, the absorbance at 600 nm was measured, and the MIC was determined as the lowest concentration of the test sample in which no bacterial growth was detected in the well.

The test system of data set [2] is MRSA11 (clinically isolated methicillin-resistant S. aureus). The data set can be described thus: microbe, parasite or virus in culture. Type of data set: cell-based, Staphylococcus aureus. The settings on record: MRSA11 (clinically isolated methicillin-resistant). How it is done: as §1, §2
Data set [3] deals with MRSA22 (clinically isolated methicillin-resistant S. aureus). In words: microbe, parasite or virus in culture. The conditions noted are these: MRSA22 (clinically isolated methicillin-resistant). In kind it is cell-based, Staphylococcus aureus. How it is done:
as §1, §2

In data set [4] the test system is S. aureus (ATCC6538). The data set can be described thus: microbe, parasite or virus in culture. In kind it is cell-based, Staphylococcus aureus. On the procedure:
as §1, §2

The subject of data set [5] is SA15772 (clinically isolated S. aureus). The data set can be described thus: microbe, parasite or virus in culture. Type of data set: cell-based, Staphylococcus aureus. The settings on record: SA15772 (clinically isolated). How it is done:
as §1, §2

For data set [6], the system named is SA220823 (clinically isolated S. aureus). The data set can be described thus: microbe, parasite or virus in culture. In kind it is cell-based, Staphylococcus aureus. The conditions noted are these: SA220823 (clinically isolated). On the procedure:
as §1, §2

A further data set concerns A. baumannii, ATCC19606. In kind it is cell-based, Acinetobacter baumannii. The settings on record: RPMI 1640, 2 × 10^5 CFU/mL, 37 °C, 12–16 h, absorbance at 600 nm. On the procedure: as §1, §2
The test system of the next data set is P. aeruginosa, ATCC9027. In kind it is cell-based, Pseudomonas aeruginosa. The settings on record: P. aeruginosa ATCC9027 in Table 3; RPMI 1640, 37 °C, 12–16 h, absorbance at 600 nm.
A further data set relates to MRSA-Z. In kind it is in vitro ADME, Staphylococcus aureus. On the procedure:
(§3) We determined the stability of RK22 in plasma according to the previously reported method. Briefly, an equal volume of RK22 was mixed with human plasma and diluted to a concentration of 5 mg/mL. The MICs of RK22 against S. aureus ATCC6538 and methicillin-resistant S. aureus MRSA-Z were determined after incubation at 37 °C for different times (0, 2, 4, 6, 8, and 10 h).

The test system of data set [7] is S. aureus (ATCC6538). In kind it is in vitro ADME, Staphylococcus aureus. How it is done: as §3
Another data set has as its system mouse red blood cells. In words: Hemolysis assay. Type of data set: cell-based. The settings on record: up to 400 μg/mL, 37 °C, 1 h, absorbance 540 nm, 1% Triton X-100 = 100%, 3 independent experiments. On the procedure:
The hemolysis and cytotoxicity assays were performed according to previous research with some modifications. In the hemolysis assay, mouse blood was collected in anticoagulant tubes, centrifuged (1000× g, 5 min), and washed with normal saline three times to obtain red blood cells. The red blood cells were then resuspended to prepare a 10% red blood cell suspension. The suspension was mixed with an equal volume solution of RK22 (final concentration 0–400 μg/mL), then incubated at 37 °C for 1 h and centrifuged (1000× g, 10 min). After this, 150 μL of the supernatant was transferred to a new 96-well plate, with absorbance then measured at 540 nm. Additionally, 1% Triton X-100 and sterile saline treatment groups accounted for 100% and 0% hemolysis, respectively.
Supplementary Figures and Figure legends
(§4) Figure S1. […] After incubation for 60 min at 37°C, cells were centrifuged (3,500 rpm, 5 min) and the absorbance of the supernatant was measured at 540 nm. The value for “zero hemolysis” was determined using sterile saline (negative control, NC), while 100% hemolysis was established using 1% (v/v) Triton X-100 (PC: positive control). Hemolysis of testing sample was calculated as the percentage of Triton X-100-induced hemolysis. […] Cell viability was determined by adding 10 μl CCK8 in to the cells and incubated for 1-4 h. The absorbance at 450 nm of the solution was measured with a microplate reader. […]

The subject of a further data set is HEK293T cells. In words: Cytotoxicity assay (CCK8). In kind it is cell-based. The settings on record: up to 400 μg/mL, 24 h, CCK8, absorbance 450 nm, 3 independent experiments. On the procedure: In the cytotoxicity assay, HEK293T cells were cultured with Dulbecco’s Modified Eagle Medium (DMEM) (Corning, New York, NY, USA) consisting of 10% fetal bovine serum (FBS, Corning, New York, NY, USA) and 1% penicillin-streptomycin liquid (Solarbio, Beijing, China). After digestion using trypsin (Gibco, New York, NY, USA), the cell suspension (100 μL, 1 × 10^5 cells/mL, […]) was inoculated into each well of a 96-well plate. Once the cells were completely adherent, the supernatant was discarded, and fresh medium with or without 100 μL of RK22 (final concentration 6.25–400 μg/mL) was added to the 96-well plates. […] The plate was then incubated at 37 °C for an additional 1–4 h, with absorbance then measured at 450 nm. […]
as §4

For the sequence RKYKEKKDKSQNKKKKRKCMIL [RK22], the MIC in [1] was 6.25 mg/L; in data set [2], 6.25 mg/L; in [3], 6.25 mg/L; against S. aureus (ATCC6538) [4] it was 6.25 mg/L; in data set [5] it was 12.5 mg/L; in data set [6], 12.5 mg/L. Moreover, the MIC in the data set with A. baumannii, ATCC19606 was 100 mg/L; against P. aeruginosa, ATCC9027 it was over 100 mg/L. Also, the “MIC after incubation in plasma” value against MRSA-Z and in the data set on S. aureus (ATCC6538) [7] was 6.25 mg/L throughout. The hemolytic activity result in the data set on mouse red blood cells is “did not exhibit any obvious hemolytic activity”. Also, the cytotoxicity result in the data set with HEK293T cells is recorded as “did not demonstrate any noticeable cytotoxic effects”.
